In patent US20090149504A1, “Novel 5-Substituted Indole Derivatives As Dipeptidyl Peptidase IV (DPP-IV) Inhibitors” (AURIGENE DISCOVERY TECHNOLOGIES LIMITED, priority 2005, published 2009):
pIC50: −log10 of the molar value. Counter-ions that a name gives are not always drawn.

Columns and labels:
Zucker fa/fa fatty rats = test: In vivo efficacy in genetic models: oral glucose challenge in Zucker fa/fa rats; parameters: species or system rat; conditions: 3 mg/kg
Description: (a) Zucker fa/fa rats Zucker fa/fa fatty rats were obtained from IffaCredo, France. The animals were maintained under 12 hour light and dark cycle at 24+/−2° C., given standard laboratory chow (NIN, Hyderabad, India) and water, ad libitum. The test compound (Example-4) was administered at 3 mg/kg dose to overnight fasted animals. The control animals received the vehicle (0.2% tween 80, dosed at 1 ml/kg) orally. Thirty minutes after administration of test compound, 2 g/kg glucose at 5 ml/kg was administered by oral gavage. Blood samples were collected at 0 (prior to compound administration), 7, 20, 40, 60 and 120 min after glucose challenge, for estimation of plasma glucose and insulin levels, and DPP-IV activity. Additional blood samples were collected in chilled EDTA tubes and immediately DPP-IV inhibitor (Linco Research, USA) was added to achieve final concentration of 10 μl/mL of blood to estimate GLP-1 levels. Blood samples were centrifuged and separated plasma samples were stored at −20° C. until analysis. Plasma DPP-IV activity and glucose levels were measured as described above (Example-65). Insulin and GLP-1 levels were measured using ELISA kits, as per manufacturer's procedures (Linco Research, USA). […] There was a 7-fold increase in GLP-1 levels at 7 min and 6-fold increase in insulin levels at 15 min after glucose challenge.

Male wistar rats = test: In vivo efficacy study in rat: oral glucose tolerance (plasma glucose); conditions: 3 mg/kg oral, 2 g/kg oral glucose, measured at 20 min after glucose challenge
Description: (§1) Male wistar rats were divided into groups of 6, fasted for approximately 16-18 hours before the experiment, and dosed orally with 0.3, 1, 3 and 10 mg/kg of the test compounds in carboxymethylcellulose (CMC) or Tween 80. After 30 min of test compound dosing, an oral glucose bolus of 2 g/kg was administered directly into the stomach of the test animals. Blood samples obtained at various time points from chronic jugular vein catheters/retro orbital bleed were analyzed for plasma glucose and plasma DPP-IV activity. Measurement of Plasma glucose was carried out using Merckotest Glucose kit (GOD-POD method, Merck) in Selectra Clinical Chemistry analyzer, and area under the curve (AUC) for glucose (0-120 min) was calculated. Plasma DPP-IV activity was measured as described above (Example-64), using 2 μl plasma for every reaction.

[1] = target: T1, DPP-IV from porcine kidney (Sus scrofa, UniProt P22411); test: In vitro DPP IV inhibition measurement (fluorimetric, Gly-Pro-AMC substrate); format: biochemical; conditions: 50 μM Gly-Pro-AMC, pH 8, 30° C.
T1 construct: DPP-IV from porcine kidney (D-7052); purchased Sigma Chemical Company, USA D-7052; host or cells: porcine kidney (tissue-derived)
Description: DPP-IV from porcine kidney (D-7052) and the substrate Gly-Pro-7-amido-4-methylcoumar0in hydrobromide (Gly-Pro-AMC, G2761) were obtained from Sigma Chemical Company, USA. Stock solutions of test compounds were prepared in dimethylsulfoxide. DPP IV enzyme cleaves the peptide substrate Gly-Pro-AMC leading to the formation of AMC, which is highly fluorescent. Molecules that inhibit DPP IV prevent or reduce the liberation of AMC from the substrate. The ability of test compounds to inhibit DPP IV was measured fluorimetrically by monitoring the formation of AMC. The assay was carried out in 20 mM Tris.HCl, pH 8 buffer. Test compounds were incubated with the enzyme (5 mU/100 μl) in a 96-well black flat bottom microtiter plate (Greiner bio-one, Germany) for 20 minutes at 30° C. and the reaction was initiated by the addition of 50 μM Gly-Pro-AMC. After 30 minutes incubation at 30° C., the fluorescence at 460 nm was measured (λex=360 nm) in a Spectramax Gemini spectrofluorimeter (Molecular Devices, USA). IC50, the concentration of compound required to inhibit 50% of enzyme activity was determined and the compounds were rated accordingly. For the IC50 determination, non-linear fitting of the dose-response curves were carried out using Kaleidagraph v3 software. LAF237 [Novarti's vildagliptin is a new class of oral antidiabetic agents known as dipeptidyl peptidase IV inhibitors (DPP-IV) inhibitors] was used as the standard inhibitor for the assay.

Plasma DPP-IV activity = target: T2, Plasma DPP-IV activity (Rattus norvegicus, UniProt P14740); test: In vivo efficacy study in rat: plasma DPP-IV activity after oral dosing; conditions: 3 mg/kg oral, male wistar rats, measured at 20 min after glucose challenge
T2 construct: from tissue; host or cells: plasma of orally dosed male Wistar rats
Description: DPP-IV from porcine kidney (D-7052) and the substrate Gly-Pro-7-amido-4-methylcoumar0in hydrobromide (Gly-Pro-AMC, G2761) were obtained from Sigma Chemical Company, USA. Stock solutions of test compounds were prepared in dimethylsulfoxide. DPP IV enzyme cleaves the peptide substrate Gly-Pro-AMC leading to the formation of AMC, which is highly fluorescent. Molecules that inhibit DPP IV prevent or reduce the liberation of AMC from the substrate. The ability of test compounds to inhibit DPP IV was measured fluorimetrically by monitoring the formation of AMC. The assay was carried out in 20 mM Tris.HCl, pH 8 buffer. […] After 30 minutes incubation at 30° C., the fluorescence at 460 nm was measured (λex=360 nm) in a Spectramax Gemini spectrofluorimeter (Molecular Devices, USA). […]
as §1, with “After 30 min of test compound dosing, an oral glucose bolus of 2 g/kg was administered directly into the stomach of the test animals.” left out, “Plasma DPP-IV activity was measured as described above (Example-64), using 2 μl plasma for every reaction.” left out

[2] = system: Male C57BL/KsJ-db/db mice; test: In vivo efficacy in genetic models: oral glucose challenge in db/db mice; conditions: 3 mg/kg
Description: (b) db/db mice Male C57BL/KsJ-db/db mice of 8 to 14 weeks age, having body weight in the range of 35 to 60 grams, bred at Discovery Research, Dr. Reddy's Laboratories, were used in the experiment. The animals were maintained under 12 hour light and dark cycle at 24+/−2° C., given standard laboratory chow (NIN, Hyderabad, India) and water, ad libitum. The test compound (Example-4) was administered at 3 mg/kg dose. The control animals received the vehicle (0.2% Tween 80, dosed at 10 ml/kg) through oral gavage. 30 minutes after administration of test compound, 1.5 g/kg glucose at 10 ml/kg was administered by oral gavage. Blood samples were collected at 0 (prior to compound administration), 15, 30, 60 and 120 min after glucose challenge for estimation of plasma glucose levels, insulin and DPP-IV activity. Blood samples (0, 7, 15 min) from a satellite group of animals were collected in chilled EDTA tubes and immediately DPP-IV inhibitor (Linco Research) was added to achieve final concentration of 10 μl/mL of blood to estimate GLP-1 levels. Blood samples were centrifuged and separated plasma was stored at −20° C. until analysis. Glucose, Insulin and GLP-1 levels, and plasma DPP-IV activity were measured as described above (Example-66). Compound (Example-4) reduced the glucose levels by 58%. There was 16-fold increase in GLP-1 levels at 7 min and 5.4-fold increase in insulin levels at 15 min after glucose challenge.

[3] = at 7 min after glucose challenge
[4] = at 15 min after glucose challenge

T1 sequence (P22411 whole entry): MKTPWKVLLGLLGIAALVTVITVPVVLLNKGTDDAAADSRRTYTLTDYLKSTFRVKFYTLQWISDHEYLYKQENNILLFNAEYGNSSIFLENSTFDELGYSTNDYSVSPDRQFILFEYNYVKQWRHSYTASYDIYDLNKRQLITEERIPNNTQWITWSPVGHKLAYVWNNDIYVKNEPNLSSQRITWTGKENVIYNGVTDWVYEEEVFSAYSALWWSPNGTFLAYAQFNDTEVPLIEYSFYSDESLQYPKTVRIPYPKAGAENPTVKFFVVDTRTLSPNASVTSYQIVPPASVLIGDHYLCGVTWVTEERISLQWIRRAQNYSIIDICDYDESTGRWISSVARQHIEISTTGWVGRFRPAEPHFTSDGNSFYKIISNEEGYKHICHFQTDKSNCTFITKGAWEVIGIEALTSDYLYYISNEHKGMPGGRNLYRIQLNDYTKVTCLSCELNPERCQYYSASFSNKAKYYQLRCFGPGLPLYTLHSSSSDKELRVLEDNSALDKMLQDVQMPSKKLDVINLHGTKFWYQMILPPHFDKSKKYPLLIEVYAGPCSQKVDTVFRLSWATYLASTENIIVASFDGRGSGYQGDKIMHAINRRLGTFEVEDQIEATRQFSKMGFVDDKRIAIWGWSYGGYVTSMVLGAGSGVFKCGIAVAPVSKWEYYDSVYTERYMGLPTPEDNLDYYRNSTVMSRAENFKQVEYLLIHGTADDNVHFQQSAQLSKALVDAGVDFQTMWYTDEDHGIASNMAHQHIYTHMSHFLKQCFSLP
T2 sequence (P14740 37-767 limits assumed): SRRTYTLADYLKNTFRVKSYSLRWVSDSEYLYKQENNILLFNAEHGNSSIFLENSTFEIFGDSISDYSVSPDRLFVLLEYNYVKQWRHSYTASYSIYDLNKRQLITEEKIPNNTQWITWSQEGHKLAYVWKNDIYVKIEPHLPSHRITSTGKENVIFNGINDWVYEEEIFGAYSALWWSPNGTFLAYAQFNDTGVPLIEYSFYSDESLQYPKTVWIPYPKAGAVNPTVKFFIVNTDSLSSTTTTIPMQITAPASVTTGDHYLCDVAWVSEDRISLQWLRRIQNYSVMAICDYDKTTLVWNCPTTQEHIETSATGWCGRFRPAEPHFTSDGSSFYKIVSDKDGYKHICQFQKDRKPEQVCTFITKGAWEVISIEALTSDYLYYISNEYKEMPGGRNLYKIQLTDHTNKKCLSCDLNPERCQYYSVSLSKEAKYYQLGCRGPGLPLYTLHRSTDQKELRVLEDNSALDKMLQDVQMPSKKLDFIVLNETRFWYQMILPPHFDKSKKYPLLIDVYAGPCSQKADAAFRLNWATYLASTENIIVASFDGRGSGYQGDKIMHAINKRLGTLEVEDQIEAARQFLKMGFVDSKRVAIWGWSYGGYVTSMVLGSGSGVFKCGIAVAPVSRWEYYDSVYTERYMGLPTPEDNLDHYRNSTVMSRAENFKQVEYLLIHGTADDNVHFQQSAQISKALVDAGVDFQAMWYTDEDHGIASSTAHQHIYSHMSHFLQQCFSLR

| SMILES | pIC50 [1] | other results |
| --- | --- | --- |
| N#Cc1ccc(Oc2ccc3[nH]cc(C[C@H](N)C(=O)N4CCC[C@H]4C#N)c3c2)nc1 [Example 6, (S,S) 6-{3-[2-Amino-3-(2-cyano-pyrrolidin-1-yl)-3-oxo-propyl]-1H-indol-5-yloxy}-nicotinonitrile. Trifluoroacetic acid salt] | 8.26 | – |
| N#Cc1ccc(Oc2ccc3[nH]cc(C[C@H](N)C(=O)N4C[C@@H](F)C[C@H]4C#N)c3c2)nc1 [Example 30, (S,S,S) 6-{3-[2-Amino-3-(2-cyano-4-fluoro-pyrrolidin-1-yl)-3-oxo-propyl]-1H-indol-5-yloxy}-nicotinonitrile. Trifluoroacetic acid salt] | 8.33 | – |
| N#C[C@H]1CSCN1C(=O)[C@@H](N)Cc1c[nH]c2ccc(Oc3ccc([N+](=O)[O-])cn3)cc12 [Example 35, (S,S) 3-{2-Amino-3-[5-(5-nitro-pyridin-2-yloxy)-1H-indol-3-yl]-propionyl}-thiazolidine-4-carbonitrile. Trifluoroacetic acid salt] | 8.43 | – |
| N#Cc1cccnc1Oc1ccc2[nH]cc(C[C@H](N)C(=O)N3C[C@@H](F)C[C@H]3C#N)c2c1 [Example 27, (S,S,S) 2-{3-[2-Amino-3-(2-cyano-4-fluoro-pyrrolidin-1-yl)-3-oxo-propyl]-1H-indol-5-yloxy} nicotinonitrile. Trifluoroacetic acid salt] | 8.05 | – |
| N#Cc1cccnc1Oc1ccc2[nH]cc(C[C@H](N)C(=O)N3CSC[C@@H]3C#N)c2c1 [Example 32, (S,S) 2-{3-[2-Amino-3-(4-cyano-thiazolidin-3-yl)-3-oxo-propyl]-1H-indol-5-yloxy}-nicotinonitrile. Trifluoroacetic acid salt] | 8.20 | – |

These reach a higher pIC50 [1]. Values come first.

| pIC50 [1] | SMILES | other results |
| --- | --- | --- |
| 8.46 | N#Cc1ccc(Oc2ccc3[nH]cc(C[C@H](N)C(=O)N4CSC[C@@H]4C#N)c3c2)nc1 [Example 33, (S,S) 6-{3-[2-Amino-3-(4-cyano-thiazolidin-3-yl)-3-oxo-propyl]-1H-indol-5-yloxy}-nicotinonitrile. Trifluoroacetic acid salt] | – |
| 8.55 | N#C[C@H]1CSCN1C(=O)[C@@H](N)Cc1c[nH]c2ccc(Oc3ccc([N+](=O)[O-])cc3)cc12 [Example 34, Trifluoroacetic acid salt] | – |
| 8.74 | N#C[C@@H]1CCCN1C(=O)[C@@H](N)Cc1c[nH]c2ccc(Oc3ccc([N+](=O)[O-])cc3)cc12 [Example 12] | % Glucose reduction (Male wistar rats): 22%; inhibition at 3 mg/kg (Plasma DPP-IV activity): 74% |
| 8.82 | N#C[C@@H]1C[C@H](F)CN1C(=O)[C@@H](N)Cc1c[nH]c2ccc(Oc3ccc([N+](=O)[O-])cc3)cc12 [Example 28, Trifluoroacetic acid salt] | – |
| 8.88 | N#C[C@@H]1CCCN1C(=O)[C@@H](N)Cc1c[nH]c2ccc(Oc3ccc([N+](=O)[O-])cn3)cc12 [Example 4, Trifluoroacetic acid salt] | reduction in glucose (Zucker fa/fa fatty rats; 2 g/kg oral glucose 30 min after compound): 55%; increase in GLP-1 levels (Zucker fa/fa fatty rats; [3]): 7 fold; increase in insulin levels (Zucker fa/fa fatty rats; [4]): 6 fold; % Glucose reduction (Male wistar rats): 34%; inhibition at 3 mg/kg (Plasma DPP-IV activity): 90%; reduced the glucose levels ([2]; 1.5 g/kg oral glucose 30 min after compound): 58%; increase in GLP-1 levels [2, 3]: 16 fold; increase in insulin levels [2, 4]: 5.4 fold |
